From patent US11814444B2, “Cyclic polypeptides for PCSK9 inhibition” (Ra Pharmaceuticals, Inc., priority 2018, dated 2023)
Numbered stars: 1 amine (or outer) side, 2 acyl side, 3 side chain; on linkers, the order of the positions; unused ones are H or OH. Bridge positions count the residues as written; N and C are the ends. Square brackets hold non-standard residues; d marks the D form. Peptide text beside a SMILES is read from it. Phe(4-COOH) = N[C@@H](Cc1ccc(C(=O)O)cc1)C(=O)O; Trp(7-aza) = N[C@@H](Cc1c[nH]c2ncccc12)C(=O)O; Gly(piperidin-4-yl) = N[C@H](C(=O)O)C1CCNCC1; Ala(2-furyl) = N[C@@H](Cc1ccco1)C(=O)O; 1Nal = N[C@@H](Cc1cccc2ccccc12)C(=O)O; 2Nal = N[C@@H](Cc1ccc2ccccc2c1)C(=O)O; mXylylene = c1cc(C[*:1])cc(C[*:2])c1; Gly(octyl) = CCCCCCCC[C@H](N)C(=O)O; 3Thi = N[C@@H](Cc1ccsc1)C(=O)O; Aad = N[C@@H](CCCC(=O)O)C(=O)O; Chg = N[C@H](C(=O)O)C1CCCCC1; PEG4 = NCCOCCOCCOCCOCCC(=O)O; Tle = CC(C)(C)[C@H](N)C(=O)O; αMeV = CC(C)[C@](C)(N)C(=O)O; S5 = C=CCCC[C@](C)(N)C(=O)O; Iva = CC[C@](C)(N)C(=O)O; Nva = CCC[C@H](N)C(=O)O; Mpa = O=C(O)CCS

Molecular target: human PCSK9 / human LDLR EGFa domain interaction (Homo sapiens, UniProt Q8NBP7)
Sequence (Q8NBP7 153-692): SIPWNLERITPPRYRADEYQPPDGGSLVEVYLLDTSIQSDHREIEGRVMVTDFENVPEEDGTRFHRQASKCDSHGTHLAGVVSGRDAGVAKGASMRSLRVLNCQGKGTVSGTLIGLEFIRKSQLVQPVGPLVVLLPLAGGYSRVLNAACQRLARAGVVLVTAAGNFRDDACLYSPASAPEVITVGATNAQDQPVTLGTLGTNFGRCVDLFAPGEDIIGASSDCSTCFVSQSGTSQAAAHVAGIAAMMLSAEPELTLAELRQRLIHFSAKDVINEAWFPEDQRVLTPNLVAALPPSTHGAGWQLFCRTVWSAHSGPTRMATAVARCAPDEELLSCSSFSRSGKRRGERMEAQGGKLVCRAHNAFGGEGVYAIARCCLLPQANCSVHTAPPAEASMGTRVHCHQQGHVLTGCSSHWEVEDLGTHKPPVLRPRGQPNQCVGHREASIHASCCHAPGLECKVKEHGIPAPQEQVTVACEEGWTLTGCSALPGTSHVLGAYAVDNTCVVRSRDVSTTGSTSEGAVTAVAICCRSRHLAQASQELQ
Sequence (Q8NBP7 31-152 partner limits assumed): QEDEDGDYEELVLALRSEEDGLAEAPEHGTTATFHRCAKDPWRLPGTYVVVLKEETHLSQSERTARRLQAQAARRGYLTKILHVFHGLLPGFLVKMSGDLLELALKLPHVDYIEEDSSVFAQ
Test: TR-FRET assay of inhibition of the PCSK9-LDLR protein-protein interaction
Assay type: binding
Conditions: 20 nM avitag-biotinylated human PCSK9, 20 nM his-tagged human LDLR EGFa domain, 2 hours, room temperature
Procedure: A time-resolved fluorescence resonance energy (TR-FRET) assay was used to measure inhibition of the PCSK9-LDLR protein-protein interaction. Briefly, 20 nM avitag-biotinylated human PCSK9 was incubated with 20 nM his-tagged human LDLR EGFa domain in the presence of 5 nM LANCE Ulight Streptavidin (Perkin Elmer) and 5 nM europium-Anti-6×His (Perkin Elmer) for 2 hours covered at room temperature in buffer containing 50 mM HEPES, 150 mM NaCl, 5 mM CaCl2), 0.01% BSA and 0.01% Surfactant P20. Compounds were tested in dose-response and concentrations giving half-maximal inhibition calculated using a 4-parameter fit equation.

Row | IC50 | Compound
1 | 100 to 1000 nM | C=CCCC[C@]1(C)NC(=O)[C@H](Cc2cccc3ccccc23)NC(=O)[C@H]([C@@H](C)O)NC(=O)[C@@H]2CCCN2C(=O)[C@H](Cc2ccc(O)cc2)NC(=O)[C@H](C(C)(C)C)NC(=O)[C@@H](NC(C)=O)CCCC(=O)NCCCC[C@@H](C(N)=O)NC(=O)[C@](C)(CCCC=C)NC(=O)[C@H](CCC)NC(=O)[C@H](Cc2ccc(O)cc2)NC(=O)[C@H](C)NC1=O [Compound 044] (Ac-[Aad][Tle]YPT[1Nal][S5]AY[Nva][S5]K-NH2; lactam 1-12)
2 | 21000 to 50000 nM | CCC[C@@H]1NC(=O)[C@H](Cc2c[nH]c3ncccc23)NC(=O)[C@H]([C@@H](C)O)NC(=O)[C@H](Cc2c[nH]cn2)NC(=O)[C@H](Cc2ccc(O)cc2)NC(=O)[C@H](C(C)(C)C)NC(=O)CCSCc2cccc(c2)CSC[C@@H](C(N)=O)NC(=O)[C@H]([C@@H](C)O)NC(=O)[C@H](CCC)NC(=O)[C@H](Cc2ccc(O)cc2)NC(=O)[C@H](Cc2ccc(C(=O)O)cc2)NC1=O [Compound 278] ([Mpa][Tle]YHT[Trp(7-aza)][Nva][Phe(4-COOH)]Y[Nva]TC-NH2; linker 1-12 via mXylylene)
3 | 100 to 1000 nM | CCC[C@@H]1NC(=O)[C@H](Cc2c[nH]c3ncccc23)NC(=O)[C@H]([C@@H](C)O)NC(=O)[C@H](Cc2c[nH]cn2)NC(=O)[C@H](Cc2ccc(O)cc2)NC(=O)[C@H](C(C)(C)C)NC(=O)CCSCc2cccc(c2)CSC[C@@H](C(N)=O)NC(=O)[C@H]([C@@H](C)O)NC(=O)[C@H](C2CCCCC2)NC(=O)[C@H](Cc2ccc(O)cc2)NC(=O)[C@H](CCC(=O)O)NC1=O [Compound 285] ([Mpa][Tle]YHT[Trp(7-aza)][Nva]EY[Chg]TC-NH2; linker 1-12 via mXylylene)
4 | 1000 to 21000 nM | CCC[C@@H]1NC(=O)[C@H](Cc2c[nH]c3ncccc23)NC(=O)[C@H]([C@@H](C)O)NC(=O)[C@H](Cc2ccco2)NC(=O)[C@H](Cc2ccc(O)cc2)NC(=O)[C@H](C(C)(C)C)NC(=O)CCSCc2cccc(c2)CSC[C@@H](C(N)=O)NC(=O)[C@H]([C@@H](C)O)NC(=O)[C@H](CCC)NC(=O)[C@H](Cc2ccc(O)cc2)NC(=O)[C@H](CCC(=O)O)NC1=O [Compound 117] ([Mpa][Tle]Y[Ala(2-furyl)]T[Trp(7-aza)][Nva]EY[Nva]TC-NH2; linker 1-12 via mXylylene)
5 | 1000 to 21000 nM | CCC[C@@H]1NC(=O)[C@H]([C@@H](C)O)NC(=O)[C@@H]2CCCN2C(=O)[C@H](Cc2ccc(O)cc2)NC(=O)[C@H](C(C)(C)C)NC(=O)[C@@H](NC(C)=O)CCCCNC(=O)CCC[C@@H](C(N)=O)NC(=O)[C@H]([C@@H](C)O)NC(=O)[C@](C)(C(C)C)NC(=O)[C@H](Cc2ccc(O)cc2)NC(=O)[C@H](C)NC1=O [Compound 057] (Ac-K[Tle]YPT[Nva]AY[αMeV]T[Aad]-NH2; lactam 1-11)
6 | 100 to 1000 nM | CCCCCCCC[C@@H]1NC(=O)[C@H](Cc2c[nH]c3ncccc23)NC(=O)[C@H]([C@@H](C)O)NC(=O)[C@@H]2CCCN2C(=O)[C@H](Cc2ccc(O)cc2)NC(=O)[C@H](C(C)(C)C)NC(=O)CCSCc2cccc(c2)CSC[C@@H](C(N)=O)NC(=O)[C@H]([C@@H](C)O)NC(=O)[C@H](CCC)NC(=O)[C@H](Cc2ccc(O)cc2)NC(=O)[C@H](C)NC1=O [Compound 169] ([Mpa][Tle]YPT[Trp(7-aza)][Gly(octyl)]AY[Nva]TC-NH2; linker 1-12 via mXylylene)
7 | 100 to 1000 nM | CCC[C@@H]1NC(=O)[C@H]([C@@H](C)O)NC(=O)[C@@H]2CCCN2C(=O)[C@H](Cc2ccc(O)cc2)NC(=O)[C@H](C(C)(C)C)NC(=O)[C@@H](NC(C)=O)CSCc2cccc(c2)CSC[C@@H](C(N)=O)NC(=O)[C@H]([C@@H](C)O)NC(=O)[C@](C)(C(C)C)NC(=O)[C@H](Cc2ccc(O)cc2)NC(=O)[C@H](C)NC1=O [Compound 173] (Ac-C[Tle]YPT[Nva]AY[αMeV]TC-NH2; linker 1-11 via mXylylene)
8 | 1000 to 21000 nM | CCC[C@@H]1NC(=O)[C@H](Cc2c[nH]c3ncccc23)NC(=O)[C@H]([C@@H](C)OC)NC(=O)[C@H](Cc2c[nH]cn2)NC(=O)[C@H](Cc2ccc(O)cc2)NC(=O)[C@H](C(C)(C)C)NC(=O)CCSCc2cccc(c2)CSC[C@@H](C(N)=O)NC(=O)[C@H]([C@@H](C)O)NC(=O)[C@H](CCC)NC(=O)[C@H](Cc2ccc(O)cc2)NC(=O)[C@H](CCC(=O)O)NC1=O [Compound 333] ([Mpa][Tle]YHT(Me)[Trp(7-aza)][Nva]EY[Nva]TC-NH2; linker 1-12 via mXylylene)
9 | 1000 to 21000 nM | CCC[C@@H]1NC(=O)[C@H](Cc2ccc3ccccc3c2)NC(=O)[C@H]([C@@H](C)O)NC(=O)[C@H](Cc2c[nH]cn2)NC(=O)[C@H](Cc2ccc(O)cc2)NC(=O)[C@H](C(C)(C)C)NC(=O)CCSCc2cccc(c2)CSC[C@@H](C(N)=O)NC(=O)[C@H]([C@@H](C)O)NC(=O)[C@H](CCC)NC(=O)[C@H](Cc2ccc(O)cc2)NC(=O)[C@H](CCC(=O)O)NC1=O [Compound 276] ([Mpa][Tle]YHT[2Nal][Nva]EY[Nva]TC-NH2; linker 1-12 via mXylylene)
10 | 1000 to 21000 nM | CCC[C@@H]1NC(=O)[C@H](Cc2c[nH]c3ncccc23)NC(=O)[C@H]([C@@H](C)O)NC(=O)[C@@H]2CCCN2C(=O)[C@H](Cc2ccc(O)cc2)NC(=O)[C@H](C(C)(C)C)NC(=O)[C@@H](NC(C)=O)CCCC(=O)NCCCC[C@H](C(N)=O)NC(=O)[C@H]([C@@H](C)O)NC(=O)[C@](C)(C(C)C)NC(=O)[C@H](Cc2ccc(O)cc2)NC(=O)[C@H](C)NC1=O [Compound 072] (Ac-[Aad][Tle]YPT[Trp(7-aza)][Nva]AY[αMeV]T[dK]-NH2; lactam 1-12)
11 | 100 to 1000 nM | CCC[C@@H]1NC(=O)[C@H](Cc2ccc(O)cc2)NC(=O)[C@H](CCC(=O)O)NC(=O)[C@](C)(CC)NC(=O)[C@H](Cc2c[nH]c3ncccc23)NC(=O)[C@H]([C@@H](C)O)NC(=O)[C@H](Cc2c[nH]cn2)NC(=O)[C@H](Cc2ccc(O)cc2)NC(=O)[C@H](C(C)(C)C)NC(=O)CCSCc2cccc(c2)CSC[C@@H](C(N)=O)NC(=O)[C@H]([C@@H](C)O)NC1=O [Compound 291] ([Mpa][Tle]YHT[Trp(7-aza)][Iva]EY[Nva]TC-NH2; linker 1-12 via mXylylene)
12 | 1000 to 21000 nM | CCC[C@@H]1NC(=O)[C@H](Cc2ccc(O)cc2)NC(=O)[C@H](C)NC(=O)[C@H](CCC)NC(=O)[C@H](Cc2c[nH]c3ncccc23)NC(=O)[C@H]([C@@H](C)O)NC(=O)[C@@H]2CCCN2C(=O)[C@H](Cc2ccc(O)cc2)NC(=O)[C@H](C(C)(C)C)NC(=O)CCSCc2cccc(c2)CSC[C@@H](C(N)=O)NC(=O)[C@H](C)NC1=O [Compound 172] ([Mpa][Tle]YPT[Trp(7-aza)][Nva]AY[Nva]AC-NH2; linker 1-12 via mXylylene)
13 | 100 to 1000 nM | C[C@@H](O)[C@@H]1NC(=O)[C@H](C2CCCCC2)NC(=O)[C@H](Cc2c[nH]c3ncccc23)NC(=O)[C@H](Cc2c[nH]cn2)NC(=O)[C@H](CCC(=O)O)NC(=O)[C@H](Cc2c[nH]c3ncccc23)NC(=O)[C@H]([C@@H](C)O)NC(=O)[C@@H]2CCCN2C(=O)[C@H](Cc2ccc(O)cc2)NC(=O)[C@H](C(C)(C)C)NC(=O)CCSCc2cccc(c2)CSC[C@@H](C(N)=O)NC1=O [Compound 154] ([Mpa][Tle]YPT[Trp(7-aza)]EH[Trp(7-aza)][Chg]TC-NH2; linker 1-12 via mXylylene)
14 | 1000 to 21000 nM | CCC[C@@H]1NC(=O)[C@H](Cc2c[nH]c3ncccc23)NC(=O)[C@H]([C@@H](C)O)NC(=O)[C@H](Cc2ccsc2)NC(=O)[C@H](Cc2ccc(O)cc2)NC(=O)[C@H](C(C)(C)C)NC(=O)CCSCc2cccc(c2)CSC[C@@H](C(N)=O)NC(=O)[C@H]([C@@H](C)O)NC(=O)[C@H](CCC)NC(=O)[C@H](Cc2ccc(O)cc2)NC(=O)[C@H](CCC(=O)O)NC1=O [Compound 119] ([Mpa][Tle]Y[3Thi]T[Trp(7-aza)][Nva]EY[Nva]TC-NH2; linker 1-12 via mXylylene)
15 | 1000 to 21000 nM | CCC[C@@H]1NC(=O)[C@H](Cc2c[nH]c3ncccc23)NC(=O)[C@H]([C@@H](C)O)NC(=O)[C@H](Cc2c[nH]cn2)NC(=O)[C@H](Cc2ccc(O)cc2)NC(=O)[C@H](C(C)(C)C)NC(=O)CCSCc2cccc(c2)CSC[C@@H](C(N)=O)NC(=O)[C@H]([C@@H](C)O)NC(=O)[C@H](C2CCNCC2)NC(=O)[C@H](Cc2ccc(O)cc2)NC(=O)[C@H](CCC(=O)O)NC1=O [Compound 331] ([Mpa][Tle]YHT[Trp(7-aza)][Nva]EY[Gly(piperidin-4-yl)]TC-NH2; linker 1-12 via mXylylene)
16 | 100 to 1000 nM | CCC[C@H](NC(C)=O)C(=O)N[C@H]1CSCc2cccc(c2)CSC[C@@H](C(N)=O)NC(=O)[C@H]([C@@H](C)O)NC(=O)[C@H](CCC)NC(=O)[C@H](Cc2ccc(O)cc2)NC(=O)[C@H](CCC(=O)O)NC(=O)[C@H](CCC)NC(=O)[C@H](Cc2c[nH]c3ncccc23)NC(=O)[C@H]([C@@H](C)O)NC(=O)[C@@H]2CCCN2C(=O)[C@H](Cc2ccc(O)cc2)NC(=O)[C@H](C(C)(C)C)NC1=O [Compound 153] (Ac-[Nva]C[Tle]YPT[Trp(7-aza)][Nva]EY[Nva]TC-NH2; linker 2-13 via mXylylene)
17 | 100 to 1000 nM | CCC[C@@H]1NC(=O)[C@H](Cc2c[nH]c3ncccc23)NC(=O)[C@H]([C@@H](C)O)NC(=O)[C@@H]2CCCN2C(=O)[C@H](Cc2ccc(O)cc2)NC(=O)[C@H](C(C)(C)C)NC(=O)CCSCc2cccc(c2)CSC[C@@H](C(=O)NCCOCCOCCOCCOCCC(N)=O)NC(=O)[C@H]([C@@H](C)O)NC(=O)[C@H](CCC)NC(=O)[C@H](Cc2ccc(O)cc2)NC(=O)[C@H](C)NC1=O [Compound 163] ([Mpa][Tle]YPT[Trp(7-aza)][Nva]AY[Nva]TC[PEG4]-NH2; linker 1-12 via mXylylene)
